Results taken from patent publication US4125615A, “2-[4-(P-Aminobenzyl)-1-piperazinyl]-8-ethyl-5,8-dihydro-5-oxopyrido[2,3-d]p y” (priority 1976, dated 1978).
Values after ≈ are worked out from the molar mass of the structure shown. Where two headings read alike, the source gives them in different places.

What was measured:
Staphylococcus aureus [1] = conditions: compounds of U.S. Pat. Nos. 3,887,557 and 3,950,338; cited from earlier work
Escherichia coli K-12 = test: In vitro antibacterial activity (MIC), Escherichia coli K-12; assay type: cell-based
Description: (§1) (1) In vitro antibacterial activity against 9 strains of bacteria (Gram-positive bacteria: 4 strains, Gram-negative bacteria: 5 strains)
(§2) The test compounds were dissolved in distilled water at a concentration of 1 mg/ml with equimolar NaOH. Then graded concentrations (300, 100, 30, 10, 3 μg/ml, etc.) were made by serial dilution with distilled water. Each solution of test compound (0.5 ml) was pipetted into 4.5 ml of medium in a tube. The media used were Brain Heart Infusion Broth, pH 7.4, for Streptococcus and nutrient broth [10 g of Polypepton, 10 g of Meat Extract, and 2.5 g of NaCl in 1 liter of distilled water], pH 7.0, for the other bacteria. One drop of a bacterial suspension freshly cultured and diluted so as to contain 10 to 100 minimal growing units in the medium was inoculated into the tube. The tubes were incubated at 37° C. for 48 hours. The minimal inhibitor concentration (MIC) was defined as the lowest concentration in which no visible growth of the bacteria was detected.

Proteus vulgaris OX-19 = test: In vitro antibacterial activity (MIC), Proteus vulgaris OX-19; assay type: cell-based
Description: as §1, §2

[2] = test system: Staphylococcus aureus No. 50774; test: In vivo efficacy against the intravenous infection of mice by Staphylococcus aureus No. 50774; conditions: NO.50774, 336 h, male ddY mice, iv infection 6 LD50, oral, twice (5 minutes and 6 hours after infection), survival after 2 weeks
Description: (2) in vivo efficacy against the intravenous infection of mice by Staphylococcus aureus No. 50774
(§3) Each group of 8 male mice (ddY strain, approximately 20 g) was intravenously infected with 6 LD50 of Staphylococcus aureus No. 50774 in 0.85% saline. The test compounds were each suspended in 0.2% carboxymethyl cellulose and administered orally in graded doses (200, 100, 50, 25, 12.5, 6.3, 3.1 mg/kg, etc.) to the infected mice twice, about 5 minutes and 6 hours after infection. Survival rates were determined after 2 weeks and the ED50 was calculated in accordance with Probit method.

[3] = test system: Streptococcus pyogenes A65; test: In vivo efficacy against the intraperitoneal infection of mice by Streptococcus pyogenes A65; conditions: A65, 336 h, male ddY mice, ip infection 4 LD50, oral, twice (5 minutes and 6 hours after infection), survival after 2 weeks
Description: as §3
(3) In vivo efficacy against the intraperitoneal infection of mice by Streptococcus pyogenes A65
Each group of 8 male mice (ddY strain, approximately 20 g) was intraperitoneally infected with 4 LD50 of Streptococcus pyogenes A65 suspended in Brain Heart Infusion Broth. The subsequent procedures were the same as those described in (2).

[4] = test system: Staphylococcus aureus Terajima; test: In vitro antibacterial activity (MIC), Staphylococcus aureus Terajima; assay type: cell-based
Description: as §1, §2

[5] = test system: Staphylococcus aureus No. 50774; test: In vitro antibacterial activity (MIC), Staphylococcus aureus No. 50774; assay type: cell-based
Description: as §1, §2

Staphylococcus aureus [6] = conditions: compounds of U.S. Pat. Nos. 3,887,557 and 3,950,338; cited from earlier work; remark: listed apart in the source
[7] = test system: Streptococcus pyogenes A65; test: In vitro antibacterial activity (MIC), Streptococcus pyogenes A65; assay type: cell-based; conditions: Brain Heart Infusion Broth pH 7.4, 37° C., 48 hours
Description: as §1, §2

Shigella sonnei EW33 = test: In vitro antibacterial activity (MIC), Shigella sonnei EW33; assay type: cell-based; conditions: nutrient broth pH 7.0, 37° C., 48 hours
Description: as §1, §2

Escherichia coli P-5101 [8] = test: In vitro antibacterial activity (MIC), Escherichia coli P-5101; assay type: cell-based
Description: as §1, §2

[9] = test system: Salmonella typhimurium S-9; test: In vitro antibacterial activity (MIC), Salmonella typhimurium S-9; assay type: cell-based; conditions: Salmonella enterica
Description: as §1, §2

[10] = test system: Staphylococcus aureus No. 10; test: In vitro antibacterial activity (MIC), Staphylococcus aureus No. 10; assay type: cell-based
Description: as §1, §2

Staphylococcus aureus [11] = conditions: Antimicrob. Agents Chemother.; cited from earlier work
Escherichia coli P-5101 [12] = test: In vivo efficacy against the intraperitoneal infection of mice by Escherichia coli p-5101; conditions: P5101, 336 h, male ddY mice, ip infection 9 LD50, 4% gastric mucin, oral, twice (5 minutes and 6 hours after infection), survival after 2 weeks
Description: as §3
(4) in vivo efficacy against the intraperitoneal infection of mice by Escherichia coli p-5101
Each group of 8 male mice (ddY strain, approximately 20 g) was intraperitoneally infected with 9 LD50 of Escherichia coli p-5101 suspended in Trypto-Soy Broth supplemented with 4% gastric mucin. The subsequent procedures were the same as those described in (2).

in vivo = conditions: mouse, in vivo, female ddY mice, Behrens-Kaerber method
Description: (§4) (5) acute toxicity in mice
(§5) Female ddY strain mice, weighing 25 to 33 g, were used. Test compounds were suspended in 0.2% carboxymethyl cellulose for oral administration, and dissolved in NaOH solution (final pH 8.8-9.2) for intravenous administration.

mice = test: in vivo
Description: as §4, §5

[13] = test system: Gram-positive and Gram-negative bacteria; test: Antibacterial activity against Gram-positive and Gram-negative bacteria (summary statement); conditions: in words
[14] = Escherichia coli, K12, 48 h, pH 7
[15] = OX19, Proteus vulgaris OX-19, nutrient broth pH 7.0, 37° C., 48 hours, read-out: MIC
[16] = Staphylococcus aureus Terajima, nutrient broth pH 7.0, 37° C., 48 hours, read-out: MIC
[17] = Staphylococcus aureus, NO.50774, 48 h, pH 7
[18] = P5101, Escherichia coli P-5101, nutrient broth pH 7.0, 37° C., 48 hours, read-out: MIC
[19] = Staphylococcus aureus No. 10, nutrient broth pH 7.0, 37° C., 48 hours, read-out: MIC
[20] = Proteus vulgaris, OX19, 48 h, pH 7
[21] = Staphylococcus aureus No. 50774, nutrient broth pH 7.0, 37° C., 48 hours, read-out: MIC
[22] = Escherichia coli, P5101, 48 h, pH 7
[23] = K12, Escherichia coli K-12, nutrient broth pH 7.0, 37° C., 48 hours, read-out: MIC
[24] = oral, 7 days, read-out: LD50 (oral administration)

| Compound | in vivo activities against Staphylococcus aureus (Staphylococcus aureus [1]) | MIC (Escherichia coli K-12; [14]) [µg/mL] | MIC (Proteus vulgaris OX-19; [15]) [µg/mL] | ED50 [2] [mg/kg] | ED50 [3] [mg/kg] | MIC [4, 16] [µg/mL] | MIC [5, 17] [µg/mL] | in vitro activities against Staphylococcus aureus (Staphylococcus aureus [6]) | MIC [7] [µg/mL] | MIC (Shigella sonnei EW33) [µg/mL] | MIC (Escherichia coli P-5101 [8]; [18]) [µg/mL] | MIC ([9]; TYPHIMURIUM, 48 h, pH 7) [µg/mL] | MIC [10, 19] [µg/mL] | MIC (Proteus vulgaris OX-19; [20]) [µg/mL] | MIC [5, 21] [µg/mL] | effect on systemic infection by Staphylococcus aureus (Staphylococcus aureus [11]) | ED50 (Escherichia coli P-5101 [12]) [mg/kg] | MIC (Escherichia coli P-5101 [8]; [22]) [µg/mL] | MIC (Escherichia coli K-12; [23]) [µg/mL] | LD50 at 168 h (in vivo; [24]) [mg/kg] | further results |
| --- | --- | --- | --- | --- | --- | --- | --- | --- | --- | --- | --- | --- | --- | --- | --- | --- | --- | --- | --- | --- | --- |
| CCn1cc(C(=O)O)c(=O)c2cnc(N3CCN(Cc4ccc(OC)cc4)CC3)nc21 [Compound 2, 2-[4-(p-Methoxybenzyl)-1-piperazinyl]-8-ethyl-5,8-dihydro-5-oxopyrido[2,3-d]pyrimidine-6-carboxylic acid] | weak | 3 (≈ 7.08 µM) | 10 (≈ 23.6 µM) | 54.5 | > 100 | 10 (≈ 23.6 µM) | 3 (≈ 7.08 µM) | relatively strong | 100 (≈ 236 µM) | 3 (≈ 7.08 µM) | 10 (≈ 23.6 µM) | 3 (≈ 7.08 µM) | 10 (≈ 23.6 µM) |  |  |  |  |  |  |  |  |
| CCn1cc(C(=O)O)c(=O)c2cnc(N3CCNCC3)nc21 [Compound PPA, 2-(1-piperazinyl)-8-ethyl-5,8-dihydro-5-oxopyrido [2,3-d]pyrimidine-6-carboxylic acid] |  | 1 (≈ 3.3 µM) |  | 238 | > 100 | 30 (≈ 98.9 µM) |  |  | 100 (≈ 330 µM) | 1 (≈ 3.3 µM) |  | 1 (≈ 3.3 µM) | 10 (≈ 33 µM) | 3 (≈ 9.89 µM) | 10 (≈ 33 µM) | only extremely weak effect | 21.2 | 1 (≈ 3.3 µM) |  |  |  |
| CCn1cc(C(=O)O)c(=O)c2cnc(N3CCN(Cc4ccccc4)CC3)nc21 [Compound 1, 2-(4-Benzyl-1-piperazinyl)-8-ethyl-5,8-dihydro-5-oxopyrido[2,3-d]-pyrimidine-6-carboxylic acid] | weak | 3 (≈ 7.62 µM) |  | ~50 | > 100 | 10 (≈ 25.4 µM) | 3 (≈ 7.62 µM) | relatively strong | 100 (≈ 254 µM) | 3 (≈ 7.62 µM) | 10 (≈ 25.4 µM) | 3 (≈ 7.62 µM) | 10 (≈ 25.4 µM) | 3 (≈ 7.62 µM) |  |  |  |  |  |  |  |
| CCn1cc(C(=O)O)c(=O)c2cnc(N3CCCC3)nc21 [Compound PA, 2-pyrrolidino-8-ethyl-5,8-dihydro-5-oxopyrido [2,3-d]pyrimidine-6-carboxylic acid] |  |  | 1 (≈ 3.47 µM) | > 200 | > 100 | 10 (≈ 34.7 µM) |  |  | 300 (≈ 1040 µM) | 3 (≈ 10.4 µM) | 10 (≈ 34.7 µM) | 3 (≈ 10.4 µM) | 10 (≈ 34.7 µM) |  | 10 (≈ 34.7 µM) | only extremely weak effect | 36.6 |  | 1 (≈ 3.47 µM) | > 2000 | LD50 (intravenous administration) (mice; female ddY mice, iv, NaOH solution final pH 8.8-9.2, 7 days, Behrens-Kaerber method): 268 mg/kg |
| CCn1cc(C(=O)O)c(=O)c2cnc(N3CCN(Cc4ccc(N)cc4)CC3)nc21 [Compound AT-1826, 2-[4-(p-Aminobenzyl)-1-piperazinyl]-8-ethyl-5,8-dihydro-5-oxopyrido[2,3-d]pyrimidine-6-carboxylic acid] |  | 1 (≈ 2.45 µM) |  | 7.2 | 47.7 |  | 1 (≈ 2.45 µM) |  | 30 (≈ 73.4 µM) | 1 (≈ 2.45 µM) |  | 3 (≈ 7.34 µM) |  | 3 (≈ 7.34 µM) |  |  | 35.6 | 3 (≈ 7.34 µM) |  | > 2000 | MIC ([4]; Staphylococcus aureus, 48 h, pH 7): 3 µg/mL (≈ 7.34 µM); antibacterial activities against Gram-positive and Gram-negative bacteria [13]: excellent antibacterial activities; MIC ([10]; Staphylococcus aureus, NO.10, 48 h, pH 7): 3 µg/mL (≈ 7.34 µM); LD50 at 168 h (in vivo; iv, NaOH solution final pH 8.8-9.2, 7 days, read-out: LD50 (intravenous administration)): 354 mg/kg; toxicity (mice; in words): low toxicity |
| CCn1cc(C(=O)O)c(=O)c2cnc(N3CCN(Cc4ccc(Cl)cc4)CC3)nc21 [Compound 3, 2-[4-(p-Chlorobenzyl)-1-piperazinyl]-8-ethyl-5,8-dihydro-5-oxopyrido[2,3-d]pyrimidine-6-carboxylic acid] | weak |  | 10 (≈ 23.4 µM) | > 100 | > 100 | 10 (≈ 23.4 µM) | 3 (≈ 7.01 µM) | relatively strong | 30 (≈ 70.1 µM) | 3 (≈ 7.01 µM) | 30 (≈ 70.1 µM) |  | 10 (≈ 23.4 µM) |  |  |  |  |  | 10 (≈ 23.4 µM) |  | MIC ([9]; Salmonella typhimurium S-9, nutrient broth pH 7.0, 37° C., 48 hours, read-out: MIC): 10 µg/mL (≈ 23.4 µM) |
